Target: T1, Bcl-2 protein (Recombinant Human Bcl-2 Protein) (Homo sapiens, UniProt P10415)
T1 construct: purchased Novus Biologicals NBP2-34889
Assay: AS-MS evaluation of binding of the Example 4 mixture library (1200 compounds/well) to Bcl-2, ASMS ratio (%)
Conditions: AS-MS, Example 4 mixture library; for ASMS ratio (%) n = 1: Bcl-2, replicate n = 1; for ASMS ratio (%) n = 2: Bcl-2, replicate n = 2
Outline: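 A pooled 1200-compound mixture (20 nM each final) was incubated with 20 μM recombinant human Bcl-2 in pH 7.4 Tris-HCl buffer with NaCl, Tween-20 and DTT for 1 h at 23° C. in the dark. Bound ligands were separated by spin-column SEC and measured by reverse-phase LC/MS; ASMS ratio (%) was calculated against protein-free unfiltered standard and protein-free SEC blank.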

T1 sequence (P10415 whole entry): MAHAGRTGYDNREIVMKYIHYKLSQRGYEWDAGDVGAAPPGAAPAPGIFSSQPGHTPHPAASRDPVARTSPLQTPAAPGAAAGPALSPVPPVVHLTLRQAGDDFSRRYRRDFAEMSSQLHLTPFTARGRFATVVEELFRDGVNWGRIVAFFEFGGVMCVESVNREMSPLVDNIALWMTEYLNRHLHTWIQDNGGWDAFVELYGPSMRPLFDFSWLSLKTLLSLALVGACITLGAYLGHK

## CCOc1cccc(-c2cc(C(=O)N3CCN(c4ccc(C(=O)NS(=O)(=O)CCC(F)(F)F)cc4)CC3)cc(C(C)(C)C)c2)c1 [Compound B2N037-01, 4-[4-[3-tert-Butyl-5-(3-ethoxyphenyl)benzoyl]piperazin-1-yl]-N-(3,3,3-trifluoropropylsulfonyl)benzamide]
  ASMS ratio (%) n = 1: 0.0%
  ASMS ratio (%) n = 2: 0.0%

## CCOc1cncc(-c2cc(C(=O)N3CCN(c4ccc(C(=O)NS(=O)(=O)CCC(F)(F)F)cc4)CC3)cc(C(C)(C)C)c2)c1 [Compound B2N038-01, 4-[4-[3-tert-Butyl-5-(5-ethoxypyridin-3-yl)benzoyl]piperazin-1-yl]-N-(3,3,3-trifluoropropylsulfonyl)benzamide]
  ASMS ratio (%) n = 1: 0.0%
  ASMS ratio (%) n = 2: 0.0%

## CCOc1cncc(-c2cc(C(=O)N3CCN(c4ccc(C(=O)NS(=O)(=O)CCC(F)(F)F)cc4)CC3)cc(C(F)(F)F)c2)c1 [Compound B2N040-01, 4-[4-[3-(5-Ethoxypyridin-3-yl)-5-(trifluoromethyl)benzoyl]piperazin-1-yl]-N-(3,3,3-trifluoropropylsulfonyl)benzamide]
  ASMS ratio (%) n = 1: 0.0%
  ASMS ratio (%) n = 2: 0.0%

## CCOc1cncc(C#Cc2cc(C(=O)N3CCN(c4ccc(C(=O)NS(=O)(=O)CCC(F)(F)F)cc4)CC3)cc(C(F)(F)F)c2)c1 [Compound B2N042-01, 4-[4-[3-[2-(5-Ethoxypyridin-3-yl)ethynyl]-5-(trifluoromethyl)benzoyl]piperazin-1-yl]-N-(3,3,3-trifluoropropylsulfonyl)benzamide]
  ASMS ratio (%) n = 1: 0.0%
  ASMS ratio (%) n = 2: 0.0%

## CCOc1cccc(-c2cnn(-c3cc(C(=O)N4CCN(c5ccc(C(=O)NS(=O)(=O)CCC(F)(F)F)cc5)CC4)cc(C(F)(F)F)c3)c2)c1 [Compound B2N043-01, 4-[4-[3-[4-(3-Ethoxyphenyl)pyrazol-1-yl]-5-(trifluoromethyl)benzoyl]piperazin-1-yl]-N-(3,3,3-trifluoropropylsulfonyl)benzamide]
  ASMS ratio (%) n = 1: −1.4%
  ASMS ratio (%) n = 2: 0.1%

## CCOc1cncc(-c2cnn(-c3cc(C(=O)N4CCN(c5ccc(C(=O)NS(=O)(=O)CCC(F)(F)F)cc5)CC4)cc(C(F)(F)F)c3)c2)c1 [Compound B2N044-01, 4-[4-[3-[4-(5-Ethoxypyridin-3-yl)pyrazol-1-yl]-5-(trifluoromethyl)benzoyl]piperazin-1-yl]-N-(3,3,3-trifluoropropylsulfonyl)benzamide]
  ASMS ratio (%) n = 1: 0.2%
  ASMS ratio (%) n = 2: 1.4%

## CCOc1cccc(-c2ccccc2CN2CCN(c3ccc(C(=O)NS(=O)(=O)CCC(F)(F)F)cc3)CC2)c1 [Compound B2N045-01, 4-[4-[[2-(3-Ethoxyphenyl)phenyl]methyl]piperazin-1-yl]-N-(3,3,3-trifluoropropylsulfonyl)benzamide]
  ASMS ratio (%) n = 1: 0.0%
  ASMS ratio (%) n = 2: 0.1%

## CCOc1cncc(-c2ccccc2CN2CCN(c3ccc(C(=O)NS(=O)(=O)CCC(F)(F)F)cc3)CC2)c1 [Compound B2N046-01, 4-[4-[[2-(5-Ethoxypyridin-3-yl)phenyl]methyl]piperazin-1-yl]-N-(3,3,3-trifluoropropylsulfonyl)benzamide]
  ASMS ratio (%) n = 1: 0.0%
  ASMS ratio (%) n = 2: −1.2%

## CCOc1cccc(-c2ccc(CN3CCN(c4ccc(C(=O)NS(=O)(=O)CCC(F)(F)F)cc4)CC3)cc2C)c1 [Compound B2N047-01, 4-[4-[[4-(3-Ethoxyphenyl)-3-methylphenyl]methyl]piperazin-1-yl]-N-(3,3,3-trifluoropropylsulfonyl)benzamide]
  ASMS ratio (%) n = 1: 0.0%
  ASMS ratio (%) n = 2: 0.0%

## CCOc1cncc(-c2ccc(CN3CCN(c4ccc(C(=O)NS(=O)(=O)CCC(F)(F)F)cc4)CC3)cc2C)c1 [Compound B2N048-01, 4-[4-[[4-(5-Ethoxypyridin-3-yl)-3-methylphenyl]methyl]piperazin-1-yl]-N-(3,3,3-trifluoropropylsulfonyl)benzamide]
  ASMS ratio (%) n = 1: 0.0%
  ASMS ratio (%) n = 2: −0.7%

## CCOc1cccc(-c2ccc(CN3CCN(c4ccc(C(=O)NS(=O)(=O)CCC(F)(F)F)cc4)CC3)c(CC)c2)c1 [Compound B2N049-01, 4-[4-[[4-(3-Ethoxyphenyl)-2-ethylphenyl]methyl]piperazin-1-yl]-N-(3,3,3-trifluoropropylsulfonyl)benzamide]
  ASMS ratio (%) n = 1: 0.0%
  ASMS ratio (%) n = 2: 0.0%

## CCOc1cncc(-c2ccc(CN3CCN(c4ccc(C(=O)NS(=O)(=O)CCC(F)(F)F)cc4)CC3)c(CC)c2)c1 [Compound B2N050-01]
  ASMS ratio (%) n = 1: 0.0%

## CCOc1cccc(-c2ccc(CN3CCN(c4ccc(C(=O)NS(=O)(=O)CCC(F)(F)F)cc4)CC3)cc2F)c1 [Compound B2N051-01, 4-[4-[[4-(3-Ethoxyphenyl)-3-fluorophenyl]methyl]piperazin-1-yl]-N-(3,3,3-trifluoropropylsulfonyl)benzamide]
  ASMS ratio (%) n = 1: 0.0%
  ASMS ratio (%) n = 2: 0.0%

## CCOc1cncc(-c2ccc(CN3CCN(c4ccc(C(=O)NS(=O)(=O)CCC(F)(F)F)cc4)CC3)cc2F)c1 [Compound B2N052-01]
  ASMS ratio (%) n = 1: 0.0%
  ASMS ratio (%) n = 2: −0.5%

## CCOc1cccc(-c2ccc(CN3CCN(c4ccc(C(=O)NS(=O)(=O)CCC(F)(F)F)cc4)CC3)c(OC)c2)c1 [Compound B2N053-01, 4-[4-[[4-(3-Ethoxyphenyl)-2-methoxyphenyl]methyl]piperazin-1-yl]-N-(3,3,3-trifluoropropylsulfonyl)benzamide]
  ASMS ratio (%) n = 1: 0.0%
  ASMS ratio (%) n = 2: 1.4%

## CCOc1cncc(-c2ccc(CN3CCN(c4ccc(C(=O)NS(=O)(=O)CCC(F)(F)F)cc4)CC3)c(OC)c2)c1 [Compound B2N054-01, 4-[4-[[4-(5-Ethoxypyridin-3-yl)-2-methoxyphenyl]methyl]piperazin-1-yl]-N-(3,3,3-trifluoropropylsulfonyl)benzamide]
  ASMS ratio (%) n = 1: 0.0%
  ASMS ratio (%) n = 2: 0.0%

## CCOc1cccc(-c2cc(CN3CCN(c4ccc(C(=O)NS(=O)(=O)CCC(F)(F)F)cc4)CC3)cc(OCC)c2)c1 [Compound B2N055-01]
  ASMS ratio (%) n = 1: 0.0%
  ASMS ratio (%) n = 2: 0.0%

## CCOc1cncc(-c2cc(CN3CCN(c4ccc(C(=O)NS(=O)(=O)CCC(F)(F)F)cc4)CC3)cc(OCC)c2)c1 [Compound B2N056-01, 4-[4-[[3-Ethoxy-5-(5-ethoxypyridin-3-yl)phenyl]methyl]piperazin-1-yl]-N-(3,3,3-trifluoropropylsulfonyl)benzamide]
  ASMS ratio (%) n = 1: 0.0%
  ASMS ratio (%) n = 2: 0.0%

## CCOc1cccc(-c2cc(CN3CCN(c4ccc(C(=O)NS(=O)(=O)CCC(F)(F)F)cc4)CC3)cc(OC(C)C)c2)c1 [Compound B2N057-01, 4-[4-[[3-(3-Ethoxyphenyl)-5-propan-2-yloxyphenyl]methyl]piperazin-1-yl]-N-(3,3,3-trifluoropropylsulfonyl)benzamide]
  ASMS ratio (%) n = 1: 0.0%
  ASMS ratio (%) n = 2: −1.8%

## CCOc1cncc(-c2cc(CN3CCN(c4ccc(C(=O)NS(=O)(=O)CCC(F)(F)F)cc4)CC3)cc(OC(C)C)c2)c1 [Compound B2N058-01]
  ASMS ratio (%) n = 1: 0.0%
  ASMS ratio (%) n = 2: 0.0%

## CCOc1cccc(-c2cc(OC)c(CN3CCN(c4ccc(C(=O)NS(=O)(=O)CCC(F)(F)F)cc4)CC3)c(OC)c2)c1 [Compound B2N059-01, 4-[4-[[4-(3-Ethoxyphenyl)-2,6-dimethoxyphenyl]methyl]piperazin-1-yl]-N-(3,3,3-trifluoropropylsulfonyl)benzamide]
  ASMS ratio (%) n = 1: 0.0%
  ASMS ratio (%) n = 2: 0.0%

## CCOc1cncc(-c2cc(OC)c(CN3CCN(c4ccc(C(=O)NS(=O)(=O)CCC(F)(F)F)cc4)CC3)c(OC)c2)c1 [Compound B2N060-01, 4-[4-[[4-(5-Ethoxypyridin-3-yl)-2,6-dimethoxyphenyl]methyl]piperazin-1-yl]-N-(3,3,3-trifluoropropylsulfonyl)benzamide]
  ASMS ratio (%) n = 1: 0.0%
  ASMS ratio (%) n = 2: 0.0%

## CCOc1cccc(-c2cc(CN3CCN(c4ccc(C(=O)NS(=O)(=O)CCC(F)(F)F)cc4)CC3)cc(C(F)(F)F)c2)c1 [Compound B2N061-01]
  ASMS ratio (%) n = 1: 0.0%
  ASMS ratio (%) n = 2: 0.0%

## CCOc1cncc(-c2cc(CN3CCN(c4ccc(C(=O)NS(=O)(=O)CCC(F)(F)F)cc4)CC3)cc(C(F)(F)F)c2)c1 [Compound B2N062-01, 4-[4-[[3-(5-Ethoxypyridin-3-yl)-5-(trifluoromethyl)phenyl]methyl]piperazin-1-yl]-N-(3,3,3-trifluoropropylsulfonyl)benzamide]
  ASMS ratio (%) n = 1: 0.0%
  ASMS ratio (%) n = 2: 0.0%

## CCOc1cccc(-c2cc(CN3CCN(c4ccc(C(=O)NS(=O)(=O)CCC(F)(F)F)cc4)CC3)cc(OC(F)(F)F)c2)c1 [Compound B2N063-01, 4-[4-[[3-(3-Ethoxyphenyl)-5-(trifluoromethoxy)phenyl]methyl]piperazin-1-yl]-N-(3,3,3-trifluoropropylsulfonyl)benzamide]
  ASMS ratio (%) n = 1: −0.3%
  ASMS ratio (%) n = 2: −3.8%

## CCOc1cncc(-c2cc(CN3CCN(c4ccc(C(=O)NS(=O)(=O)CCC(F)(F)F)cc4)CC3)cc(OC(F)(F)F)c2)c1 [Compound B2N064-01, 4-[4-[[3-(5-Ethoxypyridin-3-yl)-5-(trifluoromethoxy)phenyl]methyl]piperazin-1-yl]-N-(3,3,3-trifluoropropylsulfonyl)benzamide]
  ASMS ratio (%) n = 1: 0.0%
  ASMS ratio (%) n = 2: 0.0%

## CCOc1cccc(-c2ccc(CN3CCN(c4ccc(C(=O)NS(=O)(=O)CCC(F)(F)F)cc4)CC3)c3ccccc23)c1 [Compound B2N065-01, 4-[4-[[4-(3-Ethoxyphenyl)naphthalen-1-yl]methyl]piperazin-1-yl]-N-(3,3,3-trifluoropropylsulfonyl)benzamide]
  ASMS ratio (%) n = 1: 0.0%
  ASMS ratio (%) n = 2: 0.0%

Source: patent US20250154686A1, “COMPOUND LIBRARY” (CHUGAI SEIYAKU KABUSHIKI KAISHA, priority 2021, published 2025)
